Reference: the supplement of paper PMC4858399
Structures can show the parent of a compound that is named as a salt.

What was measured:
Details in all cases: exposure time 48 h
[1] = test system: Caenorhabditis elegans N2; test: mean nematode size ln(EXT) after 48 h, plate-adjusted (DMSO control set to 6) (ln(EXT), control-adjusted); higher = larger nematodes / less growth inhibition
Summary of the method: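 In K-medium with killed OP50, 1% DMSO and 0.5–200 µM chemical, synchronised N2 L1 larvae of C. elegans (50 per well) grew for 48 h at 20°C. Extinction was read for every worm on the Biosort, with debris removed by a growth model. Natural-log values averaged per well gave mean size, which was corrected per plate by subtracting the vehicle control mean and adding 6.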

[2] = test system: Caenorhabditis elegans N2; test: AC50 for larval growth inhibition (Hill fit); higher = less potent
Summary of the method: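 AC50 values come from a constrained Hill fit by weighted genetic-algorithm regression and are censored when out of range. The fit used only wells with at least 10 worms. Each well of a 96-well plate held 50 synchronised C. elegans N2 L1 larvae in K-medium with killed OP50, 1% DMSO and 0.5–200 µM chemical for 48 h at 20°C. A COPAS Biosort recorded each worm's size as extinction, which was log-transformed and averaged per well.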

[3] = test system: Caenorhabditis elegans N2; test: lowest effective concentration for larval growth inhibition (size below effect threshold); higher = less potent
Summary of the method: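 Chemical exposure ran for 48 h at 20°C: 50 C. elegans N2 L1 larvae per 96-well in K-medium with killed bacteria, 1% DMSO and 0.5, 1, 5, 10, 50, 100 or 200 µM chemical. Extinction of each worm, read as size on the Biosort, was log-transformed and averaged by well. The lowest effective concentration is the first dose whose plate-adjusted mean size is below a fixed value and remains so at all higher doses; the value is 5.665.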

SMILES	mean nematode size ln(EXT) (ln) ([1]; 0.5 µM)	mean nematode size ln(EXT) (ln) ([1]; 1 µM)	mean nematode size ln(EXT) (ln) ([1]; 5 µM)	mean nematode size ln(EXT) (ln) ([1]; 10 µM)	mean nematode size ln(EXT) (ln) ([1]; 50 µM)	mean nematode size ln(EXT) (ln) ([1]; 100 µM)	mean nematode size ln(EXT) (ln) ([1]; 200 µM)	AC50 for larval growth inhibition [2] [µM]	lowest effective concentration [3] [µM]
CCCCC(CC)COC(=O)CCCCC(=O)OCC(CC)CCCC (stereo not given) [Di(2-ethylhexyl)adipate]	5.87	5.8	5.73	5.76	5.75	5.82	5.55	> 200	200
CC(C)(C)OOC(C)(C)C [Di-tert-butyl peroxide]	5.88	5.88	5.96	5.83	5.59	5.79	5.31	> 200	200
C=CCOC(=O)c1ccccc1C(=O)OCC=C [Diallyl phthalate]	5.88	5.92	5.94	5.96	5.88	5.84	5.65	> 200	200
CCOP(=S)(OCC)Oc1cc(C)nc(C(C)C)n1 [Diazinon]	5.98	5.94	5.84	5.86	5.33	4.12	3.6	70.9	50
c1ccc2c(c1)oc1ccccc12 [Dibenzofuran]	5.88	5.9	5.93	5.87	5.61	5.1	3.65	126	50
CCCCOC(=O)CCCCC(=O)OCCCC [Dibutyl hexanedioate]	5.86	5.83	5.8	5.76	5.27	3.38	3.38	58.5	50
CCCCOC(=O)c1ccccc1C(=O)OCCCC [Dibutyl phthalate]	6.09	6.09	5.61	5.99	4.67	5.62	5.42	20.9	50
CCCCOC(=O)CCCCCCCCC(=O)OCCCC [Dibutyl sebacate]	5.85	5.87	5.86	5.68	5.05	5.15	4.79	27	50
N#Cc1c(Cl)cccc1Cl [Dichlobenil]	5.93	5.79	6.11	5.95	5.9	6.01	5.54	> 200	200
Nc1c(Cl)cc([N+](=O)[O-])cc1Cl [Dichloran]	6.01	5.9	5.93	5.73	4.94	4.92	4.96	14.4	50
CC(Oc1ccc(Cl)cc1Cl)C(=O)O (stereo not given) [Dichlorprop]	5.91	5.93	5.86	6.06	6.04	5.88	5.44	106	200
COP(=O)(OC)OC=C(Cl)Cl [Dichlorvos]	6.07	6.12	5.84	5.87	5.05	4.4	3.3	80.4	50
COC(=O)C(C)Oc1ccc(Oc2ccc(Cl)cc2Cl)cc1 (stereo not given) [Diclofop-methyl]	6.06	6.74	6	5.92	5.56	5.39	4.62	> 200	50
OC(c1ccc(Cl)cc1)(c1ccc(Cl)cc1)C(Cl)(Cl)Cl [Dicofol]	5.64	5.63	5.3	4.39	3.83	3.61	3.35	10.8	≤ 0.5
CC(C)(OOC(C)(C)c1ccccc1)c1ccccc1 [Dicumyl peroxide’-(Dioxydipropane-2,2-diyl)dibenzene)]	5.83	5.8	5.83	5.82	5.62	5.38	5.45	> 200	50
C1CCC(SSC2CCCCC2)CC1 [Dicyclohexyl disulfide]	5.76	5.82	5.78	5.74	5.65	5.62	5.44	> 200	50
CCCCCCCCCC[N+](C)(C)CCCCCCCCCC [Didecyl dimethyl ammonium chloride]	5.9	5.91	5.88	5.51	3.71	3.63	3.62	17	10
ClC1=C(Cl)[C@]2(Cl)[C@@H]3[C@@H]4C[C@@H]([C@H]5O[C@@H]45)[C@@H]3[C@@]1(Cl)C2(Cl)Cl [Dieldrin]	5.78	5.82	5.39	5.26	5.12	5.07	4.21	171	5
CCOS(=O)(=O)OCC [Diethyl sulfate]	5.87	5.85	5.83	5.88	5.88	4.98	5.42	55	100
CC/C(=C(/CC)c1ccc(O)cc1)c1ccc(O)cc1 [Diethylstilbestrol (DES)]	6	6	5.97	5.96	5.99	5.73	5.61	87	200
CC1COC(Cn2cncn2)(c2ccc(Oc3ccc(Cl)cc3)cc2Cl)O1 (stereo not given) [Difenoconazole]	4.06	5.79	3.52	5.15	3.59	3.58	3.51	1.84	5
CCCCCCOC(=O)c1ccccc1C(=O)OCCCCCC [Dihexyl phthalate]	5.8	5.83	5.89	5.83	5.81	5.73	5.5	> 200	200
CC(C)COC(=O)CCCCC(=O)OCC(C)C [Diisobutyl adipate]	5.93	5.89	5.73	5.85	5.74	4.35	5.38	53.6	100

SMILES	mean nematode size ln(EXT) (ln) ([1]; 0.5 µM)	mean nematode size ln(EXT) (ln) ([1]; 1 µM)	mean nematode size ln(EXT) (ln) ([1]; 5 µM)	mean nematode size ln(EXT) (ln) ([1]; 10 µM)	mean nematode size ln(EXT) (ln) ([1]; 50 µM)	mean nematode size ln(EXT) (ln) ([1]; 100 µM)	mean nematode size ln(EXT) (ln) ([1]; 200 µM)	AC50 for larval growth inhibition [2] [µM]	lowest effective concentration [3] [µM]
CC(C)COC(=O)c1ccccc1C(=O)OCC(C)C [Diisobutyl phthalate]	5.93	5.94	5.9	5.95	6.12	5.58	5.43	96.3	100
CC(C)CCCCCCCOC(=O)CCCCC(=O)OCCCCCCCC(C)C [Diisodecyl adipate]	5.86	5.91	5.83	5.89	5.89	5.89	5.53	> 200	200
CC(C)CCCCCCCOC(=O)c1ccccc1C(=O)OCCCCCCCC(C)C [Diisodecyl phthalate]	5.44	5.55	5.58	5.72	5.68	5.67	5.66	> 200	200
COc1ccc(C(=CC(=O)N2CCOCC2)c2ccc(Cl)cc2)cc1OC [Dimethomorph]	6	5.98	6.05	6.03	5.92	5.54	4.95	117	100
COC(=O)CCCCC(=O)OC [Dimethyl adipate]	5.82	5.88	5.81	5.79	5.85	5.85	5.65	> 200	200
COS(=O)(=O)OC [Dimethyl sulfate]	5.83	5.97	6.03	5.92	5.98	5.28	5.61	61.5	100
COC(=O)c1ccc(C(=O)OC)cc1 [Dimethyl terephthalate]	5.9	5.9	5.87	5.83	5.81	5.83	5.09	> 200	200
CC(C)(C)C(O)/C(=C/c1ccc(Cl)cc1Cl)n1cncn1 (stereo not given) [Diniconazole]	5.97	5.84	5.68	5.59	4.97	3.98	4.28	38.3	10
CCC(C)c1cc([N+](=O)[O-])cc([N+](=O)[O-])c1O (stereo not given) [Dinoseb]	6.02	5.96	5.94	5.91	5.82	5.56	5.04	> 200	100
CN(C)CCOC(c1ccccc1)c1ccccc1 [Diphenhydramine hydrochloride]	5.87	5.9	5.91	5.91	5.78	5.78	5.39	> 200	200
c1ccc(Nc2ccccc2)cc1 [Diphenylamine]	5.86	5.75	5.83	4.11	3.96	3.87	4.5	7.4	10
c1ccc2c(c1)Cc1ccccc1-2 [Diphenylenemethane]	6.07	6.06	6.03	5.92	4.4	4.02	3.5	39.2	50
CCN(CC)C(=S)SSC(=S)N(CC)CC [Disulfiram]	5.96	6	6.03	5.99	5.86	5.59	4.56	> 200	100
CCOP(=S)(OCC)SCCSCC [Disulfoton]	6.1	6.13	5.9	6.03	5.93	5.72	5.04	> 200	200
CSC(=O)c1c(C(F)F)nc(C(F)(F)F)c(C(=O)SC)c1CC(C)C [Dithiopyr]	6.12	6.03	6.04	5.65	4.72	4.61	3.44	66.4	10
O=C1c2c(O)cccc2Cc2cccc(O)c21 [Dithranol]	5.83	5.82	5.81	5.77	5.67	5.74	4.35	189	200
CN(C)C(=O)Nc1ccc(Cl)c(Cl)c1 [Diuron]	6.19	6.62	6.24	6.31	6.48	6.26	5.16	179	200
CCCCC(CC)COC(=O)CC(C(=O)OCC(CC)CCCC)S(=O)(=O)O (stereo not given) [Docusate sodium]	5.96	5.98	5.93	5.93	4.65	4.05	3.28	57.1	50
CCCCCCCCCCCC[N+](C)(C)C [Dodecyl trimethyl ammonium chloride]	5.76	6.02	5.88	5.9	5.76	5.65	4.53	199	100
CCCCCCCCCCCCc1ccccc1S(=O)(=O)O [Dodecylbenzenesulfonic acid, Na salt]	5.73	5.72	5.8	5.99	4.92	3.85	3.24	50.2	50
CN1CCN(c2ccccc2/C=C2\SCCN(c3ccc(Cl)c(Cl)c3)C2=O)CC1 [Elzasonan]	5.89	5.8	5.84	5.58	4.76	4.27	3.67	62.7	10
CC[C@H](C)C1O[C@]2(C=C[C@@H]1C)C[C@@H]1C[C@@H](C/C=C(\C)[C@@H](O[C@H]3C[C@H](OC)[C@@H](O[C@H]4C[C@H](OC)[C@H](NC)[C@H](C)O4)[C@H](C)O3)[C@@H](C)/C=C/C=C3\CO[C@@H]4[C@H](O)C(C)=C[C@@H](C(=O)O1)[C@]34O)O2 (stereo not given in full) [Emamectin benzoate]	3.52	3.7	3.74	3.6	3.65	3.54	4.24	< 0.5	≤ 0.5
